Broadly, the Ki is a measure of affinity in units of concentration, obtained from inhibition or displacement. Lower therefore signals a stronger hold on the target.

The test deals with T1, endo β-1,4-D-glucanase.
T1 construct: gene egl1; native secreted enzyme purified from solid state culture (ammonium sulfate, DEAE-Sepharose, Sephadex G-100); ~55 kDa on SDS-PAGE, monomer
The test can be described thus: inhibition of CMC hydrolysis, DNS reducing sugar assay, Lineweaver-Burk plot. The class given is biochemical, Trichoderma harzianum. The following applies: competitive; substrate carboxymethyl cellulose; cellobiose 5 and 10 mM. The source says:
inhibition of CMC hydrolysis, DNS reducing sugar assay, Lineweaver-Burk plot on endo β-1,4-D-glucanase | cellobiose to be competitive inhibitor of endo β-1,4-D-glucanase in the presence of CMC substrate

Each structure is given as a SMILES string.

The molecule `OC[C@H]1O[C@@H](O[C@H]2[C@H](O)[C@@H](O)C(O)O[C@@H]2CO)[C@H](O)[C@@H](O)[C@@H]1O` (stereo partly shown) [cellobiose] came in with a Ki of 66 mM. In other words, the millimolar range.

The values are drawn from paper PMC4829572, “Purification and characterization of endo β-1,4-D-glucanase from Trichoderma harzianum strain HZN11 and its application in production of bioethanol from sweet sorghum bagasse” (3 Biotech, 2016).
